# Source: publication PMC7414322 (Bioorganic & Medicinal Chemistry Letters, 2020)
# Read-outs that look alike come from different tables or passages of the source.
# Experiments:
# hERG = hERG (Homo sapiens, UniProt Q12809)
# [1] = mouse, microsomes
# [2] = human, microsomes
# in vivo = conditions: rat, po, 5 mg/kg
# Chain of hERG (Q12809 whole entry): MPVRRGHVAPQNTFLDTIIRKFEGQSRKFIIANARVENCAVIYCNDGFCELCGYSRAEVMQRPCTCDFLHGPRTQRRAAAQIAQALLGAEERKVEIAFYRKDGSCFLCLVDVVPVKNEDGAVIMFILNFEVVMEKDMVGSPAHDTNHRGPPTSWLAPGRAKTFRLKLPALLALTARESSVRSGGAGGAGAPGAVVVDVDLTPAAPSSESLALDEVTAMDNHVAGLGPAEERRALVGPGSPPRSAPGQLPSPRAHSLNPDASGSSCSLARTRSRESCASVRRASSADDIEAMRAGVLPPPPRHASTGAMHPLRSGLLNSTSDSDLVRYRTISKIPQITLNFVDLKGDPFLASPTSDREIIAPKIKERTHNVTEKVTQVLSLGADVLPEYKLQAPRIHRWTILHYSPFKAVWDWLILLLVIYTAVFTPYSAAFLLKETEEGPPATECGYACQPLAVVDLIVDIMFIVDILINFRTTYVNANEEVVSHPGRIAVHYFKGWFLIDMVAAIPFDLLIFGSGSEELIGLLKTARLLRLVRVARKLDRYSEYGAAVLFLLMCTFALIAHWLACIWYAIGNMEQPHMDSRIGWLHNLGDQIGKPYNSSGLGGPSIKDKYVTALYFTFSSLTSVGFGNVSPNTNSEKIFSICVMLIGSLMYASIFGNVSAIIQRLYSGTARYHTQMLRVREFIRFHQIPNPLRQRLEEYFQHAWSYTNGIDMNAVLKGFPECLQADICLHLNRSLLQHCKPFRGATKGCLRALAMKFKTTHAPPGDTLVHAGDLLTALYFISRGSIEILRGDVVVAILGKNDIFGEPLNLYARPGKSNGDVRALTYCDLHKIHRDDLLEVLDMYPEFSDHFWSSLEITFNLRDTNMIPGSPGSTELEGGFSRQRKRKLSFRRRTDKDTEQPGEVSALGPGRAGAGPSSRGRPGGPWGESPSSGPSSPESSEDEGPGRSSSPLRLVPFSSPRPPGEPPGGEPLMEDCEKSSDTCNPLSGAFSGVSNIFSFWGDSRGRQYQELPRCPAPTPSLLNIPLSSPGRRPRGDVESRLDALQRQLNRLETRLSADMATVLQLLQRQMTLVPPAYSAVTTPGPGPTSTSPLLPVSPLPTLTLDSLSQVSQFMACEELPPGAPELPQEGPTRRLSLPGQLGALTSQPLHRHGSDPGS
structure (smiles),measurement,setting,value
COc1cccc(CNc2ccc3ncnc(Nc4ccc(Br)cc4)c3c2)c1 [Compound 6],"Inhibitory effect on MERS-CoV infection, in words",MERS-CoV,maintained the potency
COc1cccc(CNc2ccc3ncnc(Nc4ccc(F)cc4)c3c2)c1 [Compound 7],"Inhibitory effect on MERS-CoV infection, in words",MERS-CoV,reduced potency compared to 1
COc1cccc(CNc2ccc3ncnc(Nc4cccc(Cl)c4)c3c2)c1 [Compound 8],"Inhibitory effect on MERS-CoV infection, in words",MERS-CoV,reduced potency compared to 1
COc1cccc(CNc2ccc3ncnc(Nc4ccc(C#N)cc4)c3c2)c1 [Compound 9],"Inhibitory effect on MERS-CoV infection, in words",MERS-CoV,reduced potency compared to 1
COc1cccc(CNc2ccc3ncnc(Nc4ccc(C(F)(F)F)cc4)c3c2)c1 [Compound 11],"Inhibitory effect on MERS-CoV infection, in words",MERS-CoV,slightly improve the potency
N#Cc1ccccc1CNc1ccc2ncnc(Nc3ccc(F)c(Cl)c3)c2c1 [Compound 19],"Inhibitory effect on MERS-CoV infection, in words",MERS-CoV,no inhibitory effect
N#Cc1cccc(CNc2ccc3ncnc(Nc4ccc(F)c(Cl)c4)c3c2)c1 [Compound 20],"hERG binding, in words",hERG,no hERG binding
same,"Microsomal stability, in words",[1],good microsomal stability
same,"Microsomal stability, in words",[2],good microsomal stability
same,"Cytotoxicity, in words",Vero,no cytotoxicity
same,Cytotoxicity Vero,Vero; African green monkey,>100 µM
same,"Cytotoxicity, in words",HFL-1,no cytotoxicity
same,Cytotoxicity HFL-1,HFL-1; human,>100 µM
same,"Cytotoxicity, in words",L929,no cytotoxicity
same,Cytotoxicity L929,L929; mouse,>100 µM
same,"Cytotoxicity, in words",NIH 3T3,no cytotoxicity
same,Cytotoxicity NIH 3T3,NIH 3T3; mouse,>100 µM
same,"Cytotoxicity, in words",CHO-K1,no cytotoxicity
same,Cytotoxicity CHO-K1,CHO-K1; Chinese hamster,>100 µM
same,Cmax,in vivo,200 ng/mL
Fc1ccc(Nc2ncnc3ccc(NC4CCCCC4)cc23)cc1Cl [Compound 25],"Inhibitory effect on MERS-CoV infection, in words",MERS-CoV,little inhibitory effects
N#Cc1cccc(CNc2cc3c(Nc4ccc(F)c(Cl)c4)ncnc3cc2O)c1 [Compound 30],"Inhibitory effect on MERS-CoV infection, in words",MERS-CoV,no inhibitory effects
N#Cc1ccccc1CNc1ccc2ncnc(Nc3ccc(C(F)(F)F)cc3)c2c1 [Compound 31],"Inhibitory effect on MERS-CoV infection, in words",MERS-CoV,decreased potency
